This is an account of results in patent publication US20110287432A1, “SYSTEM AND METHOD FOR TAILORING NUCLEOTIDE CONCENTRATION TO ENZYMATIC EFFICIENCIES IN DNA SEQUENCING TECHNOLOGIES” (454 Life Science Corporation, priority 2010, published 2011).

Each structure is given as a SMILES string.

For one assay, the system named is apyrase. The assay can be described thus: Enzyme kinetics of apyrase across multiple nucleotides (Michaelis-Menten). In kind it is biochemical. Conditions: for Km: Michaelis constant of apyrase for the nucleotide species; for VApy-dNTP (estimated apyrase activity): Michaelis-Menten calculation, dTTP, α-thio-dATP, dCTP, dGTP at 40.3, 166.1, 16.3, 19.7 μM; for Vmax: maximum rate of apyrase for the nucleotide species; for Apyrase activity ratio: normalized to the value of dCTP. The text has this: The nucleotide species specific steady-state apyrase concentration may be computed using what is referred to as the Michaelis-Menten kinetics to mathematically approximate the kinetic characteristics of an enzyme based upon the assumption that simple kinetic conditions exist. The Michaelis-Menten equation uses constant values that vary by nucleotide species and include the Michaelis constant KM and the maximum rate Vmax of enzyme activity in a reaction environment.
In the present example, apyrase is effectively exposed to only one type of nucleotide species at a given time due to the iterative nature of the sequencing reagent flows. The reaction rates between apyrase and each nucleotide species can be estimated using the following formula: […]
where [dNTP] is the concentration of dTTP, dATP, dCTP or dGTP.
Continuing with the present example, the nucleotide species concentrations used for the computation for dTTP, α-thio-dATP, dCTP and dGTP are 40.3, 166.1, 16.3 and 19.7 μM respectively in the reaction environment. It will be appreciated that the concentration value for α-thio-dATP is substantially higher than the concentrations of the other nucleotide species which is due to the modification that has an inhibitory effect upon the incorporation efficiency of a polymerase enzyme (i.e. thus a higher concentration improves the likelihood of polymerase incorporation) as well as an increased processing efficiency of the apyrase as illustrated in greater detail below. In some embodiments the more “natural” dATP species may be used in place of α-thio-dATP and may have a different value for nucleotide species concentration reflecting the higher efficiency of enzyme processing for that species. The estimated activities of apyrase from the Michaelis-Menten calculation towards the different nucleotide species are shown in the Table 2 below. It should again be noted that the calculated efficiency of apyrase to α-thio-dATP illustrated in Table 2 is substantially higher than for the other species and thus apyrase would be expected to process a higher concentration of α-thio-dATP in an efficient manner.

The subject of the next assay is polymerase and apyrase. The assay can be described thus: Sequencing of C. jejuni shotgun libraries, nucleotide-specific CAFIE fit of raw reads. In kind it is biochemical. The conditions noted are these: average over 200 reads. An excerpt: In the present example, DNA Shotgun libraries of the genome C. jejuni were sequenced to calculate the nucleotide species concentrations optimized for polymerase and apyrase efficiencies. The second (TA) and the third (CG) columns of Table 4 show the relative percentage of T and A to C and G nucleotide species concentrations used in sequencing runs where a value for the 100% concentration may be based upon the calculated and normalized species relative ratio values from Table 3. For instance, using the figures from Table 3 100% of the G nucleotide species is 1.2 times greater the 100% of the C nucleotide species given the concentration ratio. Those of ordinary skill in the art will appreciate that C. jejuni is an AT rich genome generally meaning that there is a higher incidence of A and T nucleotide species in the genome composition than C and G nucleotide species. Thus, the relative percentages for TA and GC concentrations illustrated in FIG. 4 reflect that fact and typically would be different for a GC rich genome (i.e. the genome of T. thermophilus).
The average completion efficiency (i.e. to estimate incomplete extension) and carry forward values of each individual nucleotide species were inferred using a method described in detail below. The last column presents the average read lengths (RL) of the high quality reads obtained where increased read length correlates to an increased level of optimization of the combination of each nucleotide species concentration that is balanced for the species specific incorporation efficiency of polymerase to degradation efficiency of apyrase.
The average completion efficiencies and carry forward values of the individual nucleotide species were inferred using nucleotide-specific CAFIE (carry forward and incompletion extension) fit. For example, the sequencing process produces raw sequence reads typically processed by an embodiment of Image and Signal Processing software such as application 135. In the present example, application 135 maps (also referred to as an alignment by those of ordinary skill in the art) the raw sequence reads generated to a reference genome sequence associated with the samples sequenced, such as a consensus reference sequence of C. jejuni. As will be evident to those of ordinary skill, mapping/aligning the raw uncorrected sequence reads to a reference sequence can be employed to determine where CAFIE error occurs and determination of incidence of nucleotide species specific CAFIE error.
In the presently described example application 135 mapped 200 uncorrected sequence reads, represented as flowgrams, to the reference genome sequence and the first 100 iterations of the nucleotide flows considered for determination of optimal concentration of each of the nucleotide species by inferring the completion efficiencies and carry forward values. The detected signal strengths of each of the four nucleotide species were first normalized using the median 1-mer value for all nucleotide species. The term “1-mer value” as used herein generally refers to a value reflecting the degree of detected signal in response to an incorporation of a nucleotide species at a single sequence position which should be substantially the same for each of the nucleotide species. Typically this the 1-mer value is easiest to calculate from detected signals obtained at the beginning of a sequencing run of a template nucleic acid molecule because the key element in an adaptor includes a single representative of each nucleotide species in a key element at a known position (i.e. a TCAG key element) and thus it is expected that only a single nucleotide of each species is incorporated at each of the four sequence positions.
The completion efficiency and carry forward values illustrated in Table 4 can be inferred using a three-stage minimization process for each individual sequence read. […]

Setting [1] is: Run 1, relative concentration TA 120%, CG 140%.
The mark [2] stands for this setting: Run 2, relative concentration TA 140%, CG 140%.
The mark [3] stands for this setting: Run 3, relative concentration TA 120%, CG 160%.

In general, Km refers to the concentration of substrate that gives half-maximal velocity. For the compound `Nc1ccn([C@H]2C[C@H](O)[C@@H](COP(=O)(O)OP(=O)(O)OP(=O)(O)O)O2)c(=O)n1` [dCTP], in the assay with apyrase, the Km stood at 76.5 µM, the “VApy-dNTP (estimated apyrase activity)” value was 31.7 μM/10 min, the Vmax was 250.0 μM/10 min and the Apyrase activity ratio is given as 1.0. Moreover, in the assay with polymerase and apyrase (setting [1]), the average carry forward came to 0.0062 and the average completion efficiency was 0.9988. Also, in the assay with polymerase and apyrase (setting [2]), the average carry forward amounted to 0.0058 and the average completion efficiency is recorded as 0.9986. Also, in the assay on polymerase and apyrase (setting [3]), the average carry forward was 0.0065 and the average completion efficiency came out at 0.9991.
Consider `Nc1nc2c(ncn2[C@H]2C[C@H](O)[C@@H](COP(=O)(O)OP(=O)(O)OP(=O)(O)O)O2)c(=O)[nH]1` [dGTP], for which, in the assay on apyrase, the Km came out at 8.1 µM, the “VApy-dNTP (estimated apyrase activity)” value is listed as 51.2 μM/10 min, the Vmax is listed as 47.4 μM/10 min and the Apyrase activity ratio was 1.6. Besides, in the assay on polymerase and apyrase (setting [1]), the average carry forward was 0.0048 and the average completion efficiency is recorded as 0.9990. Besides, in the assay on polymerase and apyrase (setting [2]), the average carry forward was determined as 0.0075 and the average completion efficiency is 0.9992. Further, in the assay with polymerase and apyrase (setting [3]), the average carry forward came out at 0.0057 and the average completion efficiency turned out to be 0.9994.
Regarding `Cc1cn([C@H]2C[C@H](O)[C@@H](COP(=O)(O)OP(=O)(O)OP(=O)(O)O)O2)c(=O)[nH]c1=O` [dTTP], in the assay with apyrase, the Km amounted to 107 µM, the “VApy-dNTP (estimated apyrase activity)” value is listed as 80.4 μM/10 min, the Vmax is listed as 294.1 μM/10 min and the Apyrase activity ratio came out at 2.5. Moreover, in the assay on polymerase and apyrase (setting [1]), the average carry forward came out at 0.0006 and the average completion efficiency was 0.9968. In addition, in the assay on polymerase and apyrase (setting [2]), the average carry forward was determined as 0.0013 and the average completion efficiency was determined as 0.9975. In addition, in the assay on polymerase and apyrase (setting [3]), the average carry forward came out at 0.0008 and the average completion efficiency was determined as 0.9959.
Turning to `Nc1ncnc2c1ncn2[C@H]1C[C@H](O)[C@@H](COP(O)(=S)OP(=O)(O)OP(=O)(O)O)O1` (stereo partly drawn) [α-thio-dATP], in the assay with apyrase, the Km stood at 115 µM, the “VApy-dNTP (estimated apyrase activity)” value is on record as 137.5 μM/10 min, the Vmax turned out to be 232.6 μM/10 min and the Apyrase activity ratio is 4.3. In addition, in the assay on polymerase and apyrase (setting [1]), the average carry forward is given as 0.0035 and the average completion efficiency was 0.9977. For the same compound, in the assay on polymerase and apyrase (setting [2]), the average carry forward is 0.0033 and the average completion efficiency came out at 0.9971. Also, in the assay on polymerase and apyrase (setting [3]), the average carry forward was 0.0043 and the average completion efficiency is reported as 0.9978.
